Results as given in US20260184662A1, “COMPOSITE OF ACID AND SALT, AND PREPARATION METHOD THEREFOR” (NANJING NUTRABUILDING BIO-TECH CO., LTD., priority 2022, published 2026).
Like-named read-outs stand apart in the source and are kept apart here.

Columns and labels:
[1] = Determination of moisture contents with KF moisture meter at different time points; assay type: physicochemical; conditions: temperature 23° C., humidity 92.5%
Source text: (§1) For R-3-hydroxybutyric acid, potassium R-3-hydroxybutyrate, mixture of R-3-hydroxybutyric acid and potassium R-3-hydroxybutyrate, and R-3-hydroxybutyric acid·potassium R-3-hydroxybutyrate complex of Example 1, under a certain condition, KF moisture meter was used to determine the moisture contents at different time points.
as §1, with “3-hydroxybutyric” for “R-3-hydroxybutyric”, “3-hydroxybutyrate,” for “R-3-hydroxybutyrate,”, “3-hydroxybutyrate” for “R-3-hydroxybutyrate”, “7,” for “1,”
as §1, with “S-3-hydroxybutyric” for “R-3-hydroxybutyric”, “S-3-hydroxybutyrate,” for “R-3-hydroxybutyrate,”, “S-3-hydroxybutyrate” for “R-3-hydroxybutyrate”, “13,” for “1,”
as §1, with “calcium” for “potassium”, “acid·calcium” for “acid·potassium”, “19,” for “1,”
(§2) For 3-hydroxybutyric acid, calcium 3-hydroxybutyrate, mixture of 3-hydroxybutyric acid and calcium 3-hydroxybutyrate, and 3-hydroxybutyric acid·calcium 3-hydroxybutyrate complex of Example 25, under a certain condition, KF moisture meter was used to determine the moisture contents at different time points.
as §2, with “S-3-hydroxybutyric” for “3-hydroxybutyric”, “S-3-hydroxybutyrate,” for “3-hydroxybutyrate,”, “S-3-hydroxybutyrate” for “3-hydroxybutyrate”, “31,” for “25,”
as §1, with “magnesium” for “potassium”, “acid·magnesium” for “acid·potassium”, “37,” for “1,”
as §2, with “magnesium” for “calcium”, “acid·magnesium 3-hydroxy butyrate” for “acid·calcium 3-hydroxybutyrate”, “43,” for “25,”
For S-3-hydroxybutyric acid, magnesium S-3-hydroxybutyrate, mixture of S-3-hydroxybutyric acid and magnesium S-3-hydroxybutyrate, and S-3-hydroxybutyric acid·magnesium S-3-hydroxybutyrate complex of Example 49, under a certain condition, KF moisture meter was used to determine the moisture contents at different time points.
(§3) For R-3-hydroxypentanoic acid, sodium R-3-hydroxypentanoate, mixture of R-3-hydroxypentanoic acid and sodium R-3-hydroxypentanoate, and R-3-hydroxypentanoic acid·sodium R-3-hydroxypentanoate complex of Example 55, under a certain condition, KF moisture meter was used to determine the moisture contents at different time points.
as §3, with “3-hydroxypentanoic” for “R-3-hydroxypentanoic”, “3-hydroxypentanoate,” for “R-3-hydroxypentanoate,”, “3-hydroxypentanoate” for “R-3-hydroxypentanoate”, “61,” for “55,”
as §3, with “S-3-hydroxypentanoic” for “R-3-hydroxypentanoic”, “S-3-hydroxypentanoate,” for “R-3-hydroxypentanoate,”, “S-3-hydroxypentanoate” for “R-3-hydroxypentanoate”, “67,” for “55,”

[2] = Stability of complexes at 30-80° C.; assay type: physicochemical
Source text: For R-3-hydroxybutyric acid, potassium R-3-hydroxybutyrate, mixture of R-3-hydroxybutyric acid and potassium R-3-hydroxybutyrate, and R-3-hydroxybutyric acid·potassium R-3-hydroxybutyrate complex of Example 1, […]
For 3-hydroxybutyric acid, potassium 3-hydroxybutyrate, mixture of 3-hydroxybutyric acid and potassium 3-hydroxybutyrate, and 3-hydroxybutyric acid·potassium 3-hydroxybutyrate complex of Example 7, […]
For S-3-hydroxybutyric acid, potassium S-3-hydroxybutyrate, mixture of S-3-hydroxybutyric acid and potassium S-3-hydroxybutyrate, and S-3-hydroxybutyric acid·potassium S-3-hydroxybutyrate complex of Example 13, […]
For R-3-hydroxybutyric acid, calcium R-3-hydroxybutyrate, mixture of R-3-hydroxybutyric acid and calcium R-3-hydroxybutyrate, and R-3-hydroxybutyric acid·calcium R-3-hydroxybutyrate complex of Example 19, […]
For 3-hydroxybutyric acid, calcium 3-hydroxybutyrate, mixture of 3-hydroxybutyric acid and calcium 3-hydroxybutyrate, and 3-hydroxybutyric acid·calcium 3-hydroxybutyrate complex of Example 25, […]
For S-3-hydroxybutyric acid, calcium S-3-hydroxybutyrate, mixture of S-3-hydroxybutyric acid and calcium S-3-hydroxybutyrate, and S-3-hydroxybutyric acid·calcium S-3-hydroxybutyrate complex of Example 31, […]
For R-3-hydroxybutyric acid, magnesium R-3-hydroxybutyrate, mixture of R-3-hydroxybutyric acid and magnesium R-3-hydroxybutyrate, and R-3-hydroxybutyric acid·magnesium R-3-hydroxybutyrate complex of Example 37, […]
For 3-hydroxybutyric acid, magnesium 3-hydroxybutyrate, mixture of 3-hydroxybutyric acid and magnesium 3-hydroxybutyrate, and 3-hydroxybutyric acid·magnesium 3-hydroxybutyrate complex of Example 43, […]
For S-3-hydroxybutyric acid, magnesium S-3-hydroxybutyrate, mixture of S-3-hydroxybutyric acid and magnesium S-3-hydroxybutyrate, and S-3-hydroxybutyric acid·magnesium S-3-hydroxybutyrate complex of Example 49, […]
For R-3-hydroxypentanoic acid, sodium R-3-hydroxypentanoate, mixture of R-3-hydroxypentanoic acid and sodium R-3-hydroxypentanoate, and R-3-hydroxypentanoic acid·sodium R-3-hydroxypentanoate complex of Example 55, […]
For 3-hydroxypentanoic acid, sodium 3-hydroxypentanoate, mixture of 3-hydroxypentanoic acid and sodium 3-hydroxypentanoate, and 3-hydroxypentanoic acid·sodium 3-hydroxypentanoate complex of Example 61, […]
For S-3-hydroxypentanoic acid, sodium S-3-hydroxypentanoate, mixture of S-3-hydroxypentanoic acid and sodium S-3-hydroxypentanoate, and S-3-hydroxypentanoic acid·sodium S-3-hydroxypentanoate complex of Example 67, […]

Row | Molecule | moisture content (%) ([1]; 30 min) | moisture content (%) ([1]; 1 h) | moisture content (%) ([1]; 2 h) | moisture content (%) ([1]; 4 h) | moisture content (%) ([1]; 6 h) | moisture content (%) ([1]; 7 h) | moisture content (%) ([1]; 11 h) | moisture content (%) ([1]; 22 h) | Stability [2] | Stability ([2]; 30° C.) | Stability ([2]; 40° C.) | Stability ([2]; 60° C.) | Stability ([2]; 70° C.) | Stability ([2]; 80° C.)
1 | CC[C@H](O)CC(=O)[O-].[Na+] [Sodium S-3-hydroxypentanoate, sodium S-3-hydroxypentanoate] | 0.91 | 1.73 | 2.91 | 4.43 | 6.22 | 6.79 | 10.61 | 20.44 | unchanged |  |  |  |  | 
2 | calcium 3-hydroxybutyrate | 0.97 | 1.81 | 2.34 | 4.12 | 5.22 | 6.01 | 10.24 | 17.72 |  | unchanged | unchanged | melted | melted | melted
3 | calcium R-3-hydroxybutyrate | 0.92 | 1.82 | 2.43 | 4.22 | 5.35 | 6.04 | 10.44 | 17.68 |  | unchanged | unchanged | melted | melted | melted
4 | magnesium 3-hydroxybutyrate | 0.81 | 1.25 | 2.23 | 4.12 | 6.43 | 8.14 | 12.42 | 18.66 |  | unchanged | unchanged | Melted | melted | melted
5 | magnesium R-3-hydroxybutyrate | 0.82 | 1.22 | 2.13 | 4.22 | 6.35 | 8.04 | 12.44 | 18.68 |  | unchanged | unchanged | melted | melted | melted
